According to patent US11090305B2, “Methods and compositions to reduce oxidative stress” (University of Massachusetts, priority 2009, dated 2021):

What was measured:
Notch1 = Notch1 expression in HSCs and lymphoid progenitors (Example 5); format: in vivo, mouse
Protocol: Cells were stained with monoclonal antibodies conjugated to various fluoroprobes. These antibodies included: Notch1, cKit (2B8), Sca-1 (E13-161.7), CD4 (L3T4), CD8 (53-6.72), CD90.1, CD25, CD44, TCRβ, NK1.1, γδTCR, CD45.1, CD45.2. The lineage cocktail consisted of CD4, CD8, B220 (RA3-6B2), TER-119, Mac-1 (MI/70), and Gr-1 (RB6-8C5). All antibodies were purchased from BD Bioscience (San Diego, Calif.). FACS analysis was carried out on a FACS Diva.
The Notch family is an evolutionarily conserved system of receptors and ligands that play a fundamental role in regulating cell-fate decision in many types of stem and progenitor cells, including HSCs. Notch1 plays a critical role in lymphocyte differentiation, wherein expression of Notch1 favors T cell differentiation. To clarify the effects of hypercholesterolemia on the expression Notch family, the expression of Notch family was screened in HSCs isolated from WT and ApoE^−/− mice. The percentage of HSCs expressing of Notch1 was higher in hypercholesterolemic than WT mice, whereas no differences in Notch2, Notch4, or Delta-like-1 were noted among groups (FIG. 47A). FIGS. 47A-47D show notch 1 expression is greater in HSCs from hypercholesterolemic mice. […] (B) Within the HSC population, a higher percentage of long term-HSCs expressed Notch1 than did short term-HSCs. This difference was evident in both WT and ApoE^−/− mice, although the percentage of short term-HSCs expressing Notch1 was twofold higher in ApoE^−/− than WT mice. […] (D) Treatment of ApoE^−/−, but not WT mice with SB203580 reduced the percentage of HSCs expressing Notch1. m±sd, n=5, *p<0.05 vs. WT, †p<0.05 vs. ApoE or HCD, p<0.05 vs. long-term HSCs.

[1] = tested on: p19^Arf, p21^Waf1, and p27^Kip1; experiment: RT-PCR expression of p19^Arf, p21^Waf1, p27^Kip1 in HSCs; format: in vivo, mouse
Protocol: The expression of p15^Ink4b, p16^Ink4a, p18^Ink4c, p19^ARF, P21^Waf1, and p27^Kip1 was determined using RT-PCR, a more sensitive and quantitative assay, in ApoE^−/− and WT HSCs.

HSCs = experiment: Competitive HSC transplantation, bone marrow repopulation; format: in vivo, mouse; settings: for outcome of competitive transplant with CD45.2 WT HSCs: WT donor mice treated 2 weeks before harvest
Protocol: HSC were purified from freshly harvested bone marrow mononuclear cells as c-Kit^+Sca-1^+CD90.1^lowLin^− by FACS sorting. Recipient mice were C57BL/6 (WT) on standard chow. Recipients underwent lethal irradiation (1100 Rads delivered in 2 doses 3 hr apart). Immediately after the 2nd irradiation, recipients were anesthetized (2% isoflurane) and 10^6 HSC/0.1 ml sterile PBS were transplanted via retro-orbital injection. Mice were followed for 12 weeks before study or administration of AOM.
The functional consequence of this loss of quiescence by competitive transplantation was investigated next, insofar as the presence of quiescent HSC are critical for successful bone marrow reconstitution. HSCs from CD45.2 ApoE^−/− or HCD mice were mixed 1:1 with CD45.1 WT HSCs and then transplanted into lethally irradiated CD45.1 WT recipients.
Activation of p38 MAPK reduces HSC quiescence in Atm^−/− mice. To evaluate this phenomena in hypercholesterolemic mice, ApoE^−/− and WT mice were treated with the selective p38 MAPK inhibitor SB203580 or the MEK 1 inhibitor PD98059 for 2 weeks prior to harvest of HSCs for transplant. CD45.2 ApoE^−/− or WT HSCs with mixed 1:1 with CD45.1 WT HSCs and transplanted into lethally irradiated CD45.1 recipient mice.

eNOS = eNOS expression in gastrocnemius muscle by western blotting (Example 2); format: in vivo, rat; settings: dietary supplements from 7 days before ischemia; 14 days after induction of ischemia
Protocol: (§1) Rats were sacrificed 14 days after induction of ischemia for measurement of gastrocnemius muscle eNOS and nitrotyrosine expression. […] Samples were homogenized in liquid nitrogen and transferred to NP-40 lysis buffer, comprised of 50 mM HEPES (pH 7.5), 150 mM NaCl, 10% glycerol, 1.5 mM MgCl2, 1 mM EDTA, 100 mM NaF, 1% NP 40, 1 mM PMSF, and […] aprotinin. The lysates were centrifuged, the supernatant recovered, and the protein concentration determined (Pierce Biotechnology, Rockford, Ill.). […] Membranes were incubated overnight at 4° C. with mouse monoclonal anti-nitrotyrosine (Cayman Chemical Co., Ann Arbor, Mich., 1:1000) or mouse monoclonal anti-eNOS (BD Transduction Laboratories, San Diego, Calif., 1:1000) and then incubated for 2 h with horseradish peroxidase-conjugated anti-mouse IgG antibody (Pierce Biotechnology, 1:5000). Immunoreactive bands were visualized using the enhanced chemiluminescence system (Amersham, Arlington Heights, Ill.). Band density was quantitated by standard densitometry and the intensity of the band of interest expressed as a function of the α-tubulin band.

[2] = tested on: Ca^2+-independent NOS (iNOS); experiment: Ca^2+-independent NOS activity in gastrocnemius muscle (Example 2); format: in vivo, rat; settings: 14 days after induction of ischemia
Protocol: (§2) Rats were sacrificed 14 days after induction of ischemia for determination of gastrocnemius muscle NOS activity. […] Muscles were homogenized in ice-cold buffer (250 mM Tris-HCl, pH 7.4, 10 mM EDTA, 10 mM EGTA), centrifuged, and the protein in the supernatant adjusted to 5 μg/ml. Samples were incubated in 10 mM NADPH, 1 μCi/μl ^14C-Arg, 6 mM CaCl2, 50 mM Tris.HCl (pH 7.4), 6 μM BH4, 2 uM FAD, and 2 μM FMN for 30 minutes at 37° C. The reaction was stopped with 400 μl of 50 mM Hepes, pH 5.5, 5 mM EDTA. Identical samples were prepared without CaCl2 and all reactions were performed in duplicate. The radioactivity of the sample eluate was measured and expressed as CPM/μg protein. The Ca^2+-dependent NOS activity, which corresponds to the sum of the endothelial and neural NOS isoforms, was calculated by subtracting the NOS activity measured in the absence of CaCl2) from the NOS activity measured in the presence of CaCl2). The Ca^2+-independent NOS activity corresponds to inflammatory isoform of NOS, or iNOS.

nitrotyrosine = experiment: Nitrotyrosine accumulation in gastrocnemius muscle by western blotting (Example 2); format: in vivo, rat; settings: 14 days after induction of ischemia
Protocol: as §1

Ca^2+-dependent NOS [3] = experiment: Ca^2+-dependent NOS activity in gastrocnemius muscle (Example 2); format: in vivo, rat; settings: 14 days after induction of ischemia
Protocol: as §2

[4] = tested on: ischemic hindlimb of rats; experiment: Evaluation of muscle necrosis (NBT staining, H&E, muscle weights) (Example 1); format: in vivo, rat; settings: 7 days after AdeNOS or PBS (17 days after induction of ischemia)
Protocol: Muscle necrosis was determined using cut sections of tibialis anterior and gastrocnemius muscle. Muscle samples were cut transversely into 3 pieces (cuts made in 2 mm increment); two sections were stained with nitroblue tetrazolium (NBT). These sections were incubated in phosphate buffered saline (pH 7.4) containing 0.033% NBT (Fischer Biotech, Austin, Tex.) and 0.133% NADH (Roche Diagnostics, Indianapolis, Ind.) for 10 min, and then fixed in 4% paraformaldehyde for 24 hours. The areas of viable (stained) and non-viable (unstained) tissue were quantified using Image Pro software (Media Cybernetics, Bethesda, Md.) and the average taken for each rat. The third cut muscle section was used for H&E staining.

Ca^2+-dependent NOS [5] = experiment: Ca^2+-dependent NOS activity in gastrocnemius muscle, hindlimb ischemia (Example 1); format: in vivo, rat; settings: 4 days after AdeNOS or PBS (14 days after induction of ischemia)
Protocol: A portion of the gastrocnemius muscle harvested on day 4 after AdeNOS or saline administration (14 days after induction of ischemia) was snap frozen in liquid N2 for subsequent analysis of Ca^2+-dependent NOS activity (EMD Chemicals, Gibbstown, N.J.). 50 μg of muscle protein homogenate was incubated in 10 mM NADPH, 1 μCi/μl ^14C-arginine, 6 mM CaCl2, 50 mM Tris.HCl (pH 7.4), 6 μM BH4, 2 μM FAD, and 2 μM FMN for 30 minutes at 37° C. The reaction was stopped with 400 μl of 50 mM Hepes (pH 5.5) and 5 mM EDTA. Identical samples were prepared without CaCl2 and all reactions were performed in duplicate. The radioactivity of the sample eluate was measured in a liquid scintillation counter. Enzyme activity was expressed as […] per minute per microgram protein (CPM/min/ug). The Ca^2+-NOS activity was calculated by subtracting the NOS activity measured without calcium from the total activity measured in the presence of calcium.

[6] = tested on: ischemic hindlimb of rats; experiment: Laser Doppler perfusion imaging of hindlimb blood flow (Example 1); format: in vivo, rat; settings: days after AdeNOS or PBS administration
Protocol: Hindlimb blood flow was determined by means of laser Doppler imaging (Moor Instruments, Ltd., Devon, United Kingdom). Flow was measured preoperatively, immediately after arterial excision, immediately before AdeNOS or saline administration, and on days 4, 7, 21, and 30 thereafter. Scans were obtained during inhalation of 1% isoflurane while core body temperature was maintained between 36.8-37.2° C. by means of a heating element driven by a rectal temperature probe. Scans were repeated three times and the average for each rat determined. Data were expressed as the ratio of ischemic:non-ischemic hindlimb.

wt MSC [7] = experiment: Response of wt MSC to endogenic medium (CD31 staining); format: cell-based, mouse; settings: WT MSCs, increased concentrations
Protocol: (§3) Adipocytes were identified by Oil Red O staining. m±sd, n=4, *p<0.05 vs control. […] Endothelial cells were identified by CD31 staining. m±sd, n=4, *p<0.05 vs control, #p<0.05 vs 5 nM.

wt MSC [8] = experiment: Response of wt MSC to adipogenic medium (Oil Red O staining); format: cell-based, mouse; settings: WT MSCs, increased concentrations
Protocol: as §3

wt MSC [9] = experiment: Basal PPARγ, adiponectin, eNOS and p-eNOS expression in wt MSC; format: cell-based, mouse; settings: WT MSCs, increased concentrations
Protocol: as §3

wt MSC [10] = experiment: Nox 4 expression and DCF staining in wt MSC after insulin treatment; format: cell-based, mouse; settings: WT MSCs, increased concentrations
Protocol: as §3

PAD patients = settings: acute or short term supplementation, literature; cited from earlier work
[11] = ApoE^−/− mice, in vivo treatment

With `C[S+]([O-])c1ccc(-c2nc(-c3ccncc3)c(-c3ccc(F)cc3)[nH]2)cc1` (stereo not shown) [SB203580] as the molecule, how does the “percentage of HSCs expressing Notch1” value (Notch1; WT mice) read?
The value was “did not affect the WT group”.

What about the “percentage of HSCs expressing Notch1” value (Notch1; hypercholesterolemic mice (ApoE^−/−, HCD), in vivo treatment) of the same molecule?
The value was “significantly reduced the percentage of ApoE^−/− HSCs expressing Notch1”.

And the “HSC expression of p19^Arf, p21^Waf1, and p27^Kip1” value [1, 11]?
The value was “significantly reduced HSC expression of p19^Arf, p21^Waf1, and p27^Kip1”.

What about the “HSC expression of p19^Arf, p21^Waf1, and p27^Kip1” value ([1]; WT HSCs) of the same molecule?
Its value is “neither drug affected expression of these proteins in WT HSCs”.

What about the “percentage of CD45.2^+ bone marrow mononuclear cells 12 weeks after competitive transplantation” value (HSCs; ApoE^−/− donor mice treated before HSC harvest (NAC 4 weeks; SB203580, PD98059 2 weeks)) of the same molecule?
Its value is “significantly improved the efficacy of ApoE^−/− HSCs in the competitive transplant paradigm”.

What about the “outcome of competitive transplant with CD45.2 WT HSCs” value (HSCs) of the same molecule?
Its value is “Neither drug affected the outcome”.

For L-arginine α-ketoglutarate, which “eNOS expression in the ischemic gastrocnemius muscle” value (eNOS) is on record?
The value was “significantly greater than that of rats fed normal chow”.

And the “Ca^2+-independent NOS activity in the ischemic gastrocnemius muscle” value [2]?
Its value is “statistically similar to the normal chow group”.

And the “nitrotyrosine level in the ischemic gastrocnemius muscle” value (nitrotyrosine)?
The value was “significantly less than the level noted in rats fed normal chow”.

And the “Ca^2+-dependent NOS activity in the ischemic gastrocnemius muscle” value (Ca^2+-dependent NOS [3])?
The value was “greater than that of rats fed normal chow”.

With `C[C@H](O)[C@H](O)[C@H]1CNc2nc(N)[nH]c(=O)c2N1` [BH4, tetrahydrobiopterin] as the molecule, how does the “extent of muscle necrosis (NBT staining)” value [4] read?
Its value is “no effect”.

What about the “Ca^2+-dependent NOS activity in gastrocnemius muscle” value (Ca^2+-dependent NOS [5]) of the same molecule?
The value was “no effect”.

And the “hindlimb blood flow recovery” value [6]?
Its value is “no effect”.

What does the source list for insulin: insulin treatment of wt MSC?
differentiation towards endothelial cells (wt MSC [7]): decreased differentiation towards endothelial cells; differentiation towards adipocytes (wt MSC [8]): increased differentiation towards adipocytes; PPARgamma expression (wt MSC [9]): increased PPARgamma; p-eNOS expression (wt MSC [9]): decreased p-eNOS expression; Nox 4 expression and oxidative stress (wt MSC [10]): increased Nox 4 expression and oxidative stress

What does the source list for `COc1cccc(-c2cc(=O)c3ccccc3o2)c1N` [PD98059]?
HSC expression of p19^Arf, p21^Waf1, and p27^Kip1 [1, 11]: had no effect; HSC expression of p19^Arf, p21^Waf1, and p27^Kip1 ([1]; WT HSCs): neither drug affected expression of these proteins in WT HSCs; outcome of competitive transplant with CD45.2 WT HSCs (HSCs): Neither drug affected the outcome

For `O=C1O[C@H]([C@@H](O)CO)C(O)=C1O` [vitamin C, L-ascorbic acid], which PAD symptoms (PAD patients) is on record?
Its PAD symptoms is “reduce PAD symptoms”.
